Test results reported in ChEMBL document CHEMBL4431369, “Synthesis and hypoglycemic activity of 9-O-(lipophilic group substituted) berberine derivatives” (Bioorg Med Chem Lett, 2016).

What was measured:
HepG2 [1] = assay: Cytotoxicity against human HepG2 cells assessed as reduction in cell viability after 48 hrs by MTT assay; assay type: cell-based; conditions: for IC50: Homo sapiens, HepG2, 48 h; for Activity: human, hepg2, 48 h
HepG2 [2] = assay: Hypoglycemic activity in human HepG2 cells assessed as increase in glucose consumption after 48 hrs; assay type: functional, cell-based
HepG2 [3] = assay: Hypoglycemic activity in human HepG2 cells assessed as increase in glucose consumption at 5 ug/ml after 48 hrs relative to control; assay type: functional
HepG2 [4] = assay: Hypoglycemic activity in human HepG2 cells assessed as increase in glucose consumption at 5 ug/ml after 48 hrs relative to BBR; assay type: functional
[5] = Ratio of compound IC50 to BBR IC50 for cytotoxicity against human HepG2 cells; assay type: cell-based; conditions: read-out: Ratio IC50
HepG2 [6] = assay: Cytotoxicity against human HepG2 cells assessed as reduction in cell viability at 125 ug/ml after 48 hrs by MTT assay; assay type: cell-based; conditions: hepg2, 48 h

Row | SMILES | IC50 (HepG2 [1]) [µg/mL] | Activity (HepG2 [1]) | Activity (HepG2 [2]) | Activity (HepG2 [3]) [%] | Activity (HepG2 [4]) [%] | selectivity ratio [5] | Activity (HepG2 [6])
1 | COc1ccc2cc3[n+](cc2c1OC(=O)c1ccc([N+](=O)[O-])cc1)CCc1cc2c(cc1-3)OCO2.[Cl-] | 37.9 | Dose-dependent effect | Dose-dependent effect | 22.4 | -15.9 |  | 
2 | COc1ccc2cc3[n+](cc2c1OC(=O)c1cccc([N+](=O)[O-])c1)CCc1cc2c(cc1-3)OCO2.[Cl-] | 27.9 | Dose-dependent effect | Dose-dependent effect | 28 | -12.1 |  | 
3 | COc1ccc2cc3[n+](cc2c1OC(=O)c1ccccc1[N+](=O)[O-])CCc1cc2c(cc1-3)OCO2.[Cl-] | 46.9 | Dose-dependent effect | Dose-dependent effect | 33.8 | -8.1 |  | 
4 | COc1cc(/C=C/C(=O)Oc2c(OC)ccc3cc4[n+](cc23)CCc2cc3c(cc2-4)OCO3)ccc1OC(C)=O.[Cl-] | 73.5 | Dose-dependent effect | Dose-dependent effect | 85.5 | 27.4 | 1.57 | 
5 | COc1ccc2cc3[n+](cc2c1OC(=O)/C=C/c1ccccc1)CCc1cc2c(cc1-3)OCO2.[Cl-] | 52.3 | Dose-dependent effect | Dose-dependent effect | 94.5 | 33.6 |  | 
6 | CN(C)C(=N)NC(=N)N [METFORMIN] |  |  |  | 20 | -17.6 |  | 
7 | COc1ccc2cc3[n+](cc2c1OC(=O)c1ccccc1)CCc1cc2c(cc1-3)OCO2.[Cl-] | 65.9 | Dose-dependent effect | Dose-dependent effect | 40 | -3.9 |  | 
8 | COc1cc(/C=C/C(=O)Oc2c(OC)ccc3cc4[n+](cc23)CCc2cc3c(cc2-4)OCO3)ccc1OC(=O)c1cccnc1.[Cl-] | 91.5 | Dose-dependent effect | Dose-dependent effect | 21.8 | -16.3 | 1.95 | Non-Toxic
9 | COc1ccc2cc3[n+](cc2c1OC(=O)c1ccccn1)CCc1cc2c(cc1-3)OCO2.[Cl-] | 41.6 | Dose-dependent effect | Dose-dependent effect | 51.7 | 4.2 |  | 
10 | COc1ccc2cc3[n+](cc2c1OC)CCc1cc2c(cc1-3)OCO2 [BERBERINE] | 46.9 | Dose-dependent effect |  | 45.6 |  |  | Toxic
11 | COc1ccc2cc3[n+](cc2c1OC(=O)c1ccncc1)CCc1cc2c(cc1-3)OCO2.[Cl-] | 82.5 | Dose-dependent effect | Dose-dependent effect | 30.2 | -10.6 |  | 
12 | COc1ccc2cc3[n+](cc2c1OC(=O)c1ccc(OC(C)=O)cc1)CCc1cc2c(cc1-3)OCO2.[Cl-] | 42.9 | Dose-dependent effect | Dose-dependent effect | 31.7 | -9.6 |  | 
13 | COc1ccc2cc3[n+](cc2c1OC(=O)c1cccnc1)CCc1cc2c(cc1-3)OCO2.[Cl-] | 72.1 | Dose-dependent effect | Dose-dependent effect | 45.7 | 0 |  | 
